The text below walks through data of patent publication US20220289657A1, “COMPOSITION FOR PREVENTING OR TREATING BACTERIAL INFECTIOUS DISEASE COMPRISING 4-GINGEROL DERIVATIVE COMPOUND AS ACTIVE INGREDIENT” (KOREA UNIVERSITY RESEARCH AND BUSINESS FOUNDATION, SEJONG …, priority 2019, published 2022).

Like-named read-outs stand apart in the source and are kept apart here. Marks after values point to notes of the source that are not given here.

Test [1] deals with T1, RhlR (Pseudomonas aeruginosa, UniProt P54292).
T1 construct: expressed in transfected cells; host or cells: E. coli sdiA variant co-transformed with pJN105R and pSC11 (RhlA::lacZ)
Briefly: cell-based. The conditions noted are these: for Relative RhIR Activity (%) Agonism 100 / Relative RhIR Activity (%) Agonism 1000: Table 3; for Relative RhIR Activity (%) Agonism 1000: 1000 (μM); for IC50: dose-response, FIG. 6A, different concentrations (0 to 100 μM); for remaining activity at 10 µM: read-out: Relative RhIR Activity (%) Antagonism 10, Table 3; for activity at 100 µM: read-out: Relative RhlR activity Agonism, Table 2.

The subject of test [2] is Pseudomonas aeruginosa. Briefly: Static biofilm formation assay (crystal violet). Type of test: cell-based. The conditions noted are these: for activity at 10 µM / activity at 100 µM: Pseudomonas aeruginosa, 24 h, Table 3, static; for activity at 10 µM: read-out: Relative biological activity (%) Biofilm formation 10; for activity at 100 µM: read-out: Relative biological activity (%) Biofilm formation 100; for Relative biological activity (%) Biofilm formation: Table 4, concentration not given. As for the experimental part: (§1) Pseudomonas aeruginosa (P. aeruginosa) (OD 595 nm=1.0) was cultured overnight, and diluted in an AB medium (1:20; 300 mM NaCl, 50 mM MgSO4, 0.2% vitamin-free casamino acids, 10 mM potassium phosphate, 1 mM L-arginine, and 1% glucose, pH 7.5) together with a positive control or compound (0100 μM) in a borosilicate bottle. The resulting mixture was incubated without shaking at 37° C. for 24 hours, and to measure growth inhibition activity. OD 595 nm of the suspended culture was measured using a multimode plate reader. Biofilm cells attached to the bottle were washed twice with phosphate-buffered saline (PBS; 137 mM NaCl, 2.7 mM KCl, 10 mM Na2HPO4, and 2 mM KH2PO4, pH 7.2). Afterward, the remaining biofilm cells were stained with 0.1% crystal violet for 10 minutes, and to remove the unbound crystal violet, washed with deionized water. The crystal violet […] to the biofilm cells was eluted with 100% ethanol, and the OD of the eluted ethanol sample was measured at 545 nm using a multimode plate reader.

The subject of test [3] is Pseudomonas aeruginosa. Briefly: Bacterial growth under static condition (OD 595 nm of suspended culture). Format: cell-based. The conditions noted are these: for activity at 10 µM / activity at 100 µM: Pseudomonas aeruginosa, 24 h; for activity at 10 µM: read-out: Relative biological activity (%) Bacterial growth 10; for activity at 100 µM: read-out: Relative biological activity (%) Bacterial growth 100; for Relative biological activity (%) Bacterial growth: Table 4, concentration not given. As for the experimental part: as §1

In test [4] the test system is Pseudomonas aeruginosa. Briefly: Dynamic biofilm formation assay (drip-flow reactor, CLSM). Type of test: cell-based. The conditions noted are these: 48 hours, 10 μM, smaller volume and thickness than control. How it is done: Glass slides were placed in a drip-flow reactor, and an AB medium containing 5% P. aeruginosa (OD 595 nm=1.0) was added along with a positive control or compound (0 to 10 μM) and the reactor was continuously operated using peristaltic pumps (Masterflex C/L tubing pumps, Cole-Parmer, Ill., USA) at 0.3 ml/min. After the above-described process was carried out at 37° C. for 48 hours, unattached biofilm cells were removed with PBS. The remaining biofilm cells were stained with DAPI (Sigma-Aldrich) for 10 minutes, and observed by confocal laser scanning microscopy (CLSM; Carl Zeiss LSM700, Jena, Germany). The CLSM image of the biofilm cells was obtained with a 20× objective lens (W NAchroplanX20/0.5W (DIC) M27) under blue fluorescence light (excitation wavelength: 350 nm, emission wavelength: 470 nm) using a Z-stack mode of the Zen 2011 program. The volume and thickness of the biofilm were measured using Comstat2 of the ImageJ program based on a CLSM image.

Test [5] concerns P. aeruginosa. Briefly: Rhamnolipid production assay. Format: cell-based, Pseudomonas aeruginosa. The conditions noted are these: for activity at 10 µM / activity at 100 µM: Pseudomonas aeruginosa, 24 h; for activity at 10 µM: read-out: Relative biological activity (%) Rhamnolipid production 10; for activity at 100 µM: read-out: Relative biological activity (%) Rhamnolipid production 100; for Relative biological activity (%) Rhamnolipid production: Table 4, concentration not given. As for the experimental part:
P. aeruginosa (OD 595 nm=1.0) cultured overnight was inoculated in an AB medium (1:100) with a positive control or compound (0100 μM), and incubated using a shaking culture for 24 hours at 37° C. The cell culture was centrifuged for 5 minutes at 4° C. and 12,000 g. Rhamnolipids were extracted twice by mixing 200 μL of a supernatant and 400 μL of 100% diethyl ether (JUNSEI, Tokyo, Japan). The supernatant was transferred to a new tube and evaporated. A dried sample was eluted with 20 μL of deionized water, and reacted with 180 μL of an Orcinal solution (0.19% Orcinal (Sigma-Aldrich) in 53% H2SO4). The reaction mixture was heated for 30 minutes at 80° C., and cooled for 15 minutes at room temperature. The amount of rhamnolipids was measured at OD 421 nm, and normalized in the cell culture solution at OD 595 nm using a multimode plate reader.

Test [6] has as its system rhlA. Briefly: RT-qPCR analysis of rhlA expression in biofilm cells. Type of test: cell-based, Pseudomonas aeruginosa. The settings on record: 10 μM, FIG. 9B. As for the experimental part: P. aeruginosa (OD 595 nm=1.0) overnight cultured with a positive control or compound (0-10 μM) was diluted (1:20) in an AB medium in a borosilicate bottle. Afterward, after culture for 24 hours at 37° C., biofilm cells were collected for RNA extraction. Total RNA was extracted using a TRI reagent (Molecular Research Center, OH, USA) according to the manufacturer's instruction. To quantify and compare QS-related gene expression levels, RT-qPCR was performed. For RT-qPCR, a SYBR Premix Ex Taq™ (Takara, Shiga, Japan), a CFX-96 real-time system (Bio-Rad, Hercules, Calif. USA), and a QS-related gene primer set were used. The thermal profile of the RT-qPCR is as follows: 40 cycles of initial denaturation for 10 seconds at 95° C., denaturation for 10 seconds at 95° C., annealing for 10 seconds at 60° C., and extension for 34 seconds at 63° C. A fluorescent signal intensity was collected at the end of the elongation step.
A general note: Quantitative PCR measures a nucleic acid by following its amplification.

Test [7] concerns the target T2, LasR (Pseudomonas aeruginosa, UniProt P25084).
T2 construct: expressed in transfected cells; host or cells: E. coli DH5a co-transformed with pJN105L and pSC11 (lasI::lacZ)
The settings on record: previous studies; cited from earlier work.

Test [8] concerns the target T2, LasR. Briefly: QS reporter strain assay, LasR (lasI::lacZ). Format: cell-based. The settings on record: 0.1 and 10 μM; FIG. 6C. As for the experimental part:
For RhlR reporter strain analysis, the present invention used pJN105R (RhlR expression plasmid), anspSC11 (RhlA::lacZ fusion plasmid) and an sdiA variant co-transformed with the two plasmids. 1% of an overnight-cultured reporter strain (OD 595 nm=1.0) supplemented with 10 μg/mL gentamicin and 50 μg/mL ampicillin was cultured in a Luria-Bertani (LB) medium (Difco, Detroit, Mich., USA) with a positive control or a compound (0-1000 μM) and BHL (0-10 μM) (Sigma-Aldrich) at 37° C. for 2 hours. 0.4% arabinose (Sigma-Aldrich) was reacted with the resulting product at 37° C. for 1.5 hours. β-galactosidase activity was evaluated using a Tropix plus kit (Applied Biosystems, CA, USA), and OD 595 nm and luminescence were measured using a VICTOR x5 multimode plate reader (PerkinElmer, Waltham, Mass., USA). Relative RhlR activity was quantified by measuring luminescence at OD 595 nm. In addition, for LasR reporter strain analysis, the present invention used pJN105L (LasR expression plasmid) and pSC11 (lasI::lacZ fusion plasmid), E. coli DH5a co-transformed with the two plasmids, and OdDHL (Sigma-Aldrich).

The mark [9] stands for this setting: Table 2, footnotes not given, 100 μM per Table 3, lower = stronger antagonism.
Where [10] appears, read: Table 4, concentration not given.
Where [11] appears, read: read-out: Relative RhIR Activity (%) Antagonism 100, Table 3, 100 (μM).
[12] abbreviates: footnotes not given, matches the 100 column of Table 3.
Setting [13] is: read-out: Relative RhlR activity Antagonism, Table 2, footnotes not given, 100 μM per Table 3, lower = stronger antagonism.

T1 sequence (P54292 whole entry): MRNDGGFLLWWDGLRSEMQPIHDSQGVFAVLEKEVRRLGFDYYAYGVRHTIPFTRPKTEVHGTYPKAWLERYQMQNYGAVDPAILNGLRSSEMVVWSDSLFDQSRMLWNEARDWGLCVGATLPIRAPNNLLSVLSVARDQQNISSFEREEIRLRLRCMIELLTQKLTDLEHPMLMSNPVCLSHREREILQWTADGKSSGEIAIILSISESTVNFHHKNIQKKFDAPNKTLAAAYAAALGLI
T2 sequence (P25084 whole entry): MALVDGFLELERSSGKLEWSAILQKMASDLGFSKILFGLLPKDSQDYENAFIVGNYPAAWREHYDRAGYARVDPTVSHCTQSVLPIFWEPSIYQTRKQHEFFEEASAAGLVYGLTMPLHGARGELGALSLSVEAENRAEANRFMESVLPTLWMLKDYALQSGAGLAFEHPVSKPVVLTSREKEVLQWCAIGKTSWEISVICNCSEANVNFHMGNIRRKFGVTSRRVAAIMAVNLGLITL

On to `CCCC(=O)NC1CCCC1` [Compound 1d, N-cyclopentylbutyramide, reference compound], for which, in test [1] (setting [9]), the “Relative RhlR activity Antagonism” value was 54** %. In addition, the “Relative RhIR Activity (%) Agonism 100” value in test [1] (100 (μM)) is listed as 4** %. Moreover, the “Relative RhIR Activity (%) Agonism 1000” value in test [1] came out at 37%. Further, the “Relative RhIR activity (%) Agonism” value in test [1] (setting [10]) is 4** %. Besides, the 50% inhibitory concentration (IC50) in test [1] is 86 µM. Moreover, in test [1], the remaining activity at 10 µM is 74%. In addition, the remaining activity at 100 µM in test [1] (setting [11]) and in test [1] (setting [13]) was 54% each time. For the same compound, the activity at 100 µM in test [1] (setting [12]) is 4%; in test [2], 69%; in test [3] (Table 3, 100 (μM)), 98%; in test [5] it was 45%. For the same compound, the activity at 10 µM in test [2] was 84%; in test [3] (Table 3, 10 (μM)) it was 95%; in test [5] it was 58%. Also, the “Relative biological activity (%) Biofilm formation” value in test [2] is reported as 81* %. In addition, in test [4], the “biofilm appearance under flow condition vs control” value is “thinner and more dispersed biofilm”. In addition, in test [5], the “Relative biological activity (%) Rhamnolipid production” value is 68* %.

For the compound `CCCCC[C@H](O)CC(=O)CCc1ccc(O)c(OC)c1` [Compound 1c, (S)-6-gingerol, reference compound], in test [3], the activity at 10 µM worked out at 96% and the activity at 100 µM amounted to 101%. For the same compound, the “biofilm appearance under flow condition vs control” value in test [4] is “thinner and more dispersed biofilm”. Further, the “downregulation of rhlA expression of biofilm cells” value in test [6] came out at 38%. The “LasR antagonistic activity (reported previously)” value in test [7] is “LasR antagonistic activity”.

Turning to `CCCC(O)CC(=O)/C=C/c1cccc(OC)c1` (stereo not drawn) [Compound 11c, (E)-5-Hydroxy-1-(3-methoxyphenyl)oct-1-en-3-one], the “Relative RhIR Activity (%) Agonism 100” value in test [1] (100 (μM)) is on record as 2** %. For the same compound, the “Relative RhIR Activity (%) Agonism 1000” value in test [1] was 4** %. For the same compound, in test [1] (setting [10]), the “Relative RhIR activity (%) Agonism” value is 2** %. In test [1], the remaining activity at 10 µM turned out to be 89%. The remaining activity at 100 µM in test [1] (setting [11]) and in test [1] (setting [13]) was 94% throughout. In addition, the activity at 100 µM in test [1] (setting [12]) was determined as 2%; in test [2] it was 73%; in test [3] (Table 3, 100 (μM)), 95%; in test [5] (Table 3, 100 (μM)) it was 83%. Moreover, the activity at 10 µM in test [2] was 88%; in test [3] (Table 3, 10 (μM)), 96%; in test [5] (Table 3, 10 (μM)) it was 91%. Moreover, the “Relative biological activity (%) Biofilm formation” value in test [2] was 82* %. Moreover, the “Relative biological activity (%) Bacterial growth” value in test [3] came to 101%. Further, the “Relative biological activity (%) Rhamnolipid production” value in test [5] worked out at 95%.

As for `CCCC(O)CC(=O)/C=C/c1ccc(O)c(O)c1` (stereo not drawn) [Compound 11k, (E)-1-(3,4-Dihydroxyphenyl)-5-hydroxyoct-1-en-3-one], in test [1] (100 (μM)), the “Relative RhIR Activity (%) Agonism 100” value is on record as 3** %. Also, in test [1], the “Relative RhIR Activity (%) Agonism 1000” value is recorded as 5** %. The remaining activity at 10 µM in test [1] turned out to be 60%. Besides, the remaining activity at 100 µM in test [1] (setting [11]) and in test [1] (setting [13]) was 43% throughout. For the same compound, the activity at 100 µM came to 3% in test [1] (setting [12]); 72% in test [2]; 104% in test [3] (Table 3, 100 (μM)); 50% in test [5] (Table 3, 100 (μM)). In addition, the activity at 10 µM in test [2] worked out at 84%; in test [3] (Table 3, 10 (μM)), 99%; in test [5] (Table 3, 10 (μM)) it was 56%.

Turning to `CCCCC[C@H](O)C#Cc1ccc(O)c(OC)c1` [Compound 23c, (S)-4-(3-Hydroxyoct-1-yn-1-yl)-2-methoxyphenol], in test [1] (setting [9]), the “Relative RhlR activity Antagonism” value was 34** %. In test [1] (setting [10]), the “Relative RhIR activity (%) Agonism” value is recorded as 3** % and the “Relative RhIR activity (%) Antagonism” value is given as 34** %. Moreover, the activity at 100 µM in test [1] (setting [12]) amounted to 3%. Further, in test [1] (setting [13]), the remaining activity at 100 µM was 34%. The “Relative biological activity (%) Biofilm formation” value in test [2] is 67* %. In addition, the “Relative biological activity (%) Bacterial growth” value in test [3] is 104%. Moreover, the “Relative biological activity (%) Rhamnolipid production” value in test [5] was found to be 86%.

On to `CCCC(O)CC(=O)CCc1ccc(O)c(OC)c1` (stereo not drawn) [Compound 12a, 5-Hydroxy-1-(4-hydroxy-3-methoxyphenyl)octan-3-one], for which, in test [1] (setting [9]), the “Relative RhlR activity Antagonism” value is 69** %. The “Relative RhlR activity Agonism” value in test [1] (Table 2, footnotes not given, matches the 100 column of Table 3) is 4** %. The compound further gave an IC50 in test [1] of 218 µM. For the same compound, in test [8], the LasR antagonistic activity entry is “no LasR antagonistic activity”.

By IC50 is commonly meant the concentration that gives 50% inhibition.
